Experiments:
heatstroke = details: in vivo; cited from earlier work
glaucoma patients = details: cited from earlier work
JC virus = details: cited from earlier work
[1] = test system: spontaneously hypertensive rats; details: cited from earlier work
normal volunteers = test: APD125 Phase 1 trials / afternoon nap model of insomnia in normal volunteers; type: in vivo, human
Excerpt: APD125, a potent and selective 5-HT2A serotonin receptor inverse agonist is a member of the genus disclosed in the European Patent EP1558582. […] These effects occurred at the expense of REM sleep. Sleep onset latency was not decreased by APD125.

[2] = test system: DOI-induced hypolocomotion in rats; test: Attenuation of DOI-induced hypolocomotion in rats; type: in vivo, rat; details: male Sprague-Dawley rats, compound 1-10 mg/kg p.o., DOI 1 mg/kg s.c.
Experimental: In this example, compounds of the invention were tested for inverse agonist activity by determining whether these compounds could attenuate DOI-induced hypolocomotion in rats in a novel environment. DOI is a potent 5-HT2A/2C receptor agonist that crosses the blood-brain barrier. The standard protocol used is described briefly below.
Male Sprague-Dawley rats weighing between 200-350 g were used for all tests. Rats were housed three to four per cage.
(R)-DOI HCl (C11H16INO2.HCl) was obtained from Sigma-Aldrich and was dissolved in 0.9% saline. Compounds of the invention were synthesized at Arena Pharmaceuticals Inc., San Diego, Calif. and were dissolved in 100% PEG400. DOI was injected s.c. in a volume of 1 mL/kg, while compounds of the invention were administered p.o. in a volume of 1 mL/kg.
The “Motor Monitor” (Hamilton-Kinder, Poway, Calif.) was used for all activity measurement. This apparatus recorded rears using infrared photobeams. […]
In determining the effects of compounds of the invention on DOI-induced hypoactivity, animals were first injected with vehicle or the compound of the invention (1-10 mg/kg) in their home cages. […] Ten minutes after DOI administration, animals were placed into the activity apparatus and rearing activity was measured for 10 min.
Results (total rears over 10 min) were analyzed by t-test. […]

[3] = target: human 5-HT2A serotonin receptor (Homo sapiens (Human), UniProt P28223); details: 0.5 nM [125I]DOI, COS7 membranes with recombinant human 5-HT2A; read-out: IC50 DOI Binding Assay
diabetic rats = details: cited from earlier work
[4] = test system: DOCA-salt induced hypertension in rats; details: cited from earlier work
diabetic nephropathy = details: patients, 24 months of treatment; cited from earlier work
humans = details: sciatica from lumbar disc herniation; cited from earlier work
rats = details: thermal induced pain i.p., inflammatory pain intrathecal or i.p.; cited from earlier work

O=C(c1ccc(F)cc1)C1CCN(CCn2c(=O)[nH]c3ccccc3c2=O)CC1 [ketanserin]
protection during heatstroke (heatstroke): protect against circulatory shocks, intracranial hypertension and cerebral ischemia during heatstroke | intra ocular pressure (IOP) (glaucoma patients): significantly lower IOP | JC virus infection of human glial cells (JC virus): inhibited JC virus infection of human glial cells | blood pressure [1]: stabilize blood pressure

COc1ccc(NC(=O)Nc2ccc(F)cc2F)cc1-c1c(Br)cnn1C [APD125]
effect on waking EEG (normal volunteers; Phase 1 trials, maximal effects at 40-80 mg): vigilance-lowering effects | microarousals, sleep stage shifts and awakenings after sleep onset (normal volunteers; afternoon nap model): decreased microarousals, the number of sleep stage shifts and number of awakenings after sleep onset | slow wave sleep and associated parameters (normal volunteers; afternoon nap model of insomnia, normal volunteers): increased slow wave sleep and associated parameters in a dose-dependent manner | sleep onset latency (normal volunteers; afternoon nap model, normal volunteers): not decreased

O=C(c1cccn2ccnc12)N1CCN(CCc2ccc(Cl)cc2Cl)CC1 [Compound 19, (4-(2,4-Dichlorophenethyl)piperazin-1-yl)(imidazo[1,2-α]pyridin-8-yl)methanone]
attenuation of DOI-induced hypolocomotion (total rears over 10 min) [2]: attenuated DOI-induced hypolocomotion

O=C(c1cccn2cc(-c3ccccc3)nc12)N1CCN(CCc2ccc(F)cc2)CC1 [Compound 9, (4-(4-Fluorophenethyl)piperazin-1-yl)(2-phenylimidazo[1,2-α]pyridin-8-yl)methanone]
IC50 [3]: 0.046 µM

O=C(c1cccn2ccnc12)N1CCN(CC(F)c2ccc(F)cc2)CC1 (stereo not drawn) [Compound 10, (4-(2-Fluoro-2-(4-fluorophenyl)ethyl)piperazin-1-yl)(imidazo[1,2-α]pyridin-8-yl)methanone]
IC50 [3]: 0.01 µM

O=CN1CCC(C(=O)NCCN2CCC(=C3c4ccccc4C=Cc4ccccc43)CC2)CC1 [AT-1015]
correction of a 19.8% sciatic motor conduction deficit (diabetic rats): 82.6-99.7%

CN1CCN2c3ccccc3Cc3ccccc3C2C1 (stereo not drawn) [Mainserin]
DOCA-salt induced hypertension [4]: prevent DOCA-salt induced hypertension

Cc1nc2sccn2c(=O)c1CCN1CCC(=C(c2ccc(F)cc2)c2ccc(F)cc2)CC1 [ritanserin]
correction of a 19.8% sciatic motor conduction deficit (diabetic rats): 82.6-99.7% | JC virus infection of human glial cells (JC virus): inhibited JC virus infection of human glial cells

COc1cccc(CCc2ccccc2OCC(CN(C)C)OC(=O)CCC(=O)O)c1 (stereo not drawn) [sarpogrelate]
correction of a 19.8% sciatic motor conduction deficit (diabetic rats): 82.6-99.7% | intra ocular pressure (IOP) (glaucoma patients): significantly lower IOP | urinary albumin excretion level (diabetic nephropathy): significantly reduced | treatment of lower back pain, leg pain and numbness (humans): effective treatment | analgesic effect (rats): significant analgesic effect

O=C(c1cccn2ccnc12)N1CCN(CCc2ccccc2F)CC1 [Compound 18, (4-(2-Fluorophenethyl)piperazin-1-yl)(imidazo[1,2-α]pyridin-8-yl)methanone]
attenuation of DOI-induced hypolocomotion (total rears over 10 min) [2]: attenuated DOI-induced hypolocomotion

From patent publication US9567327B2, “Imidazo[1,2-a]pyridine derivatives as modulators of the 5-HT2A serotonin receptor useful for the treatment of disorders related thereto” (Arena Pharmaceuticals, Inc., priority 2007, dated 2017)
